Results from publication PMC8704880, “Secondary Metabolites with Cytotoxic Activities from Streptomyces sp. BM-8 Isolated from the Feces of Equus quagga” (Molecules, 2021).
Like-named read-outs stand apart in the source and are kept apart here.

Tests used:
[1] = tested on: A375 human malignant melanoma cell line; assay: MTT cytotoxicity assay, A375; type: cell-based; details: A-375, 48 h, read-out: IC50 (Means ± SD) A375
Experimental: (§1) The cytotoxic activity of the compounds on cancer cell lines, including HT-29, MCF-7, A375, K562, andNCM460cell lines, was measured using the MTT assay with a small modification. Briefly, cells were plated in 96-well plates at a density of 1 × 10^4 cells per well and allowed to grow overnight, then the medium was replaced with fresh RPMI1640 medium containing serially diluted compounds, and the cells were further incubated at 37 °C with 5% CO2 for 48 h. In this experiment, 1 and 6 were diluted into six different series concentrations from 10 μg/mL to 0.0097 μg/mL with 4× dilution each, while 2 and 3 were diluted from 500 μg/mL to 2.06 μg/mL, and 4, 5, and 7 from 300 μg/mL to 1.23 μg/mL with 3× dilution each. Paclitaxel, a clinical medication used as a positive control, was diluted from 100 μg/mL to 3.125 μg/mL with […]. HT-29, MCF-7, and A375 were all cultured in serum-free RPMI1640, while the K562 was cultured in DMEM containing FBS throughout this experiment. The culture medium was removed after the incubation, and then 100 μL of the 5 mg/mL MTT solution was added to each well and further incubated at 37 °C for 4 h. Finally, the supernatants were removed, and 150 μL of dimethyl sulfoxide (DMSO) was added to each well. After shaking the plates for 10 min at room temperature, the optical density value was measured spectrophotometrically at 570 nm using the microplate reader. The IC50 value (50% inhibitory concentration) was determined to evaluate the cell viability of these cell lines. In this experiment, Graph Pad Prism 5software (San Diego, CA, USA) was used to calculate the half inhibitory concentration (IC50) values. Each experiment was independently repeated at least three times and represented as the means ± standard deviation (SD).

[2] = tested on: K562 human chronic myeloid leukemia cell line; assay: MTT cytotoxicity assay, K562; type: cell-based; details: 48 h, read-out: IC50 (Means ± SD) K562
Experimental: as §1

[3] = tested on: MCF-7 human breast cancer cell line; assay: MTT cytotoxicity assay, MCF-7; type: cell-based; details: MCF7, 48 h, read-out: IC50 (Means ± SD) MCF-7
Experimental: as §1

[4] = tested on: HT-29, MCF-7, A375, K562 and NCM460 cell lines; assay: MTT cytotoxicity assay, whole panel of cell lines; type: cell-based, human; details: for cytotoxic activity toward the tested cell lines (in words): all tested cell lines; for IC50: Homo sapiens, range over all tested cell lines, read-out: IC50 values ranging over the tested cell lines
Experimental: as §1

[5] = tested on: HT-29 human colon cancer cell line; assay: MTT cytotoxicity assay, HT-29; type: cell-based; details: 48 h, read-out: IC50 (Means ± SD) HT-29
Experimental: as §1

[6] = tested on: NCM460 human normal colon epithelial cell line; assay: MTT cytotoxicity assay, NCM460; type: cell-based; details: 48 h, read-out: IC50 (Means ± SD) NCM460
Experimental: as §1

[7] = medium containing FBS, NA = not active

`CC[C@H](O)CC(=O)CC[C@H](O)C(C)C(=O)O` (some centres unmarked) [Compound 1] showed an IC50 ([1]; medium without FBS) of 45 ± 1.21 µM, an IC50 [2, 7] of 1.56 ± 0.21 µM and an IC50 ([3]; medium without FBS) of 5.44 ± 1.33 µM. For the same compound, the “cytotoxic activity toward the tested cell lines (in words)” value [4] was “less activity”, the IC50 ([5]; medium without FBS) was 1.98 ± 1.04 µM and the IC50 ([6]; normal colon epithelial cells) was 27.9 ± 4.7 µM.
With `C[C@H](C(=O)O)[C@@H]1CC[C@H](C[C@@H](C)O)O1` [Compound 2, nonactic acid] the IC50 ([1]; medium without FBS) was 185.9 ± 1.27 µM, the IC50 [2, 7] was 83.6 ± 2.54 µM and the IC50 ([3]; medium without FBS) was 289 ± 3.54 µM. The IC50 ([5]; medium without FBS) was 44.4 ± 2.77 µM and the IC50 ([6]; normal colon epithelial cells) was 1605 ± 14.4 µM.
Compound `CC[C@@H](O)C[C@H]1CC[C@@H]([C@H](C)C(=O)O)O1` [Compound 3, homononactic acid] has an IC50 ([1]; medium without FBS) of 146 ± 2.01 µM, an IC50 [2, 7] of 57 ± 1.88 µM and an IC50 ([3]; medium without FBS) of 99.1 ± 2.66 µM. For the same compound, the IC50 ([5]; medium without FBS) was 39.9 ± 3.22 µM and the IC50 ([6]; normal colon epithelial cells) was 1027 ± 8.01 µM.
`CCOC(=O)[C@@H](C)[C@@H]1CC[C@H](C[C@H](O)CC)O1` [Compound 4, ethyl homononactate] was tested, and the IC50 ([1]; medium without FBS) was 65.09 ± 0.62 µM, the IC50 [2, 7] was 12.3 ± 0.54 µM and the IC50 ([3]; medium without FBS) was 39.6 ± 2.57 µM. The IC50 ([5]; medium without FBS) was 11.8 ± 1.83 µM and the IC50 ([6]; normal colon epithelial cells) was 249 ± 4.22 µM.
Compound `CC[C@@H](O)C[C@H]1CC[C@@H]([C@H](C)C(=O)O[C@@H](CC)C[C@@H]2CC[C@H]([C@@H](C)C(=O)O)O2)O1` [Compound 5, homononactylhomononactate] has an IC50 ([1]; medium without FBS) of 30.7 ± 0.93 µM, an IC50 [2, 7] of 14.2 ± 0.47 µM and an IC50 ([3]; medium without FBS) of 16.7 ± 1.08 µM. For the same compound, the IC50 ([5]; medium without FBS) was 38.1 ± 2.35 µM and the IC50 ([6]; normal colon epithelial cells) was 33.3 ± 3.31 µM.
With `CC(C)[C@@H]1NC(=O)[C@H](C)OC(=O)[C@@H](C(C)C)NC(=O)[C@@H](C(C)C)OC(=O)[C@H](C(C)C)NC(=O)[C@H](C)OC(=O)[C@@H](C(C)C)NC(=O)[C@@H](C(C)C)OC(=O)[C@H](C(C)C)NC(=O)[C@H](C)OC(=O)[C@@H](C(C)C)NC(=O)[C@@H](C(C)C)OC1=O` [Compound 6, valinomycin] the “cytotoxic activity toward the tested cell lines (in words)” value [4] was “significant cytotoxic activities”.
With `CC(C)CC1NC(=O)C2CCCN2C1=O` (centres unmarked) [Compound 7, cyclo-(Pro-Leu)] the IC50 ([1]; medium without FBS) was 51.1 ± 4.73 µM, the IC50 [2, 7] was 21.7 ± 0.35 µM and the IC50 ([3]; medium without FBS) was 78.8 ± 1.95 µM. It also gave an IC50 ([5]; medium without FBS) of 102 ± 2.66 µM and an IC50 ([6]; normal colon epithelial cells) of 776 ± 11.4 µM.
`CCOC(=O)[C@@H](C)C1CCC(C[C@@H](C)O)O1` (some centres unmarked) [Compound 8] was tested, and the IC50 ([1]; medium without FBS) was 445.9 ± 4.1 µM, the IC50 ([3]; medium without FBS) was 847 ± 39.5 µM and the IC50 ([5]; medium without FBS) was 441.3 ± 1.65 µM. It also gave an IC50 ([6]; normal colon epithelial cells) of 164 ± 3.09 µM.
`CC[C@@H](O)CC1CCC([C@H](C)C(=O)OC(C)C)O1` (some centres unmarked) [Compound 9] was tested, and the IC50 ([1]; medium without FBS) was 115 ± 3.66 µM, the IC50 [2, 7] was 69.4 ± 3.9 µM and the IC50 ([3]; medium without FBS) was 171 ± 5.08 µM. The “cytotoxic activity toward the tested cell lines (in words)” value [4] was “broad toxicity”, the IC50 ([5]; medium without FBS) was 113 ± 3.68 µM and the IC50 ([6]; normal colon epithelial cells) was 29 ± 3.68 µM.
Compound `CCCCOC(=O)[C@@H](C)C1CCC(C[C@H](O)CC)O1` (some centres unmarked) [Compound 10] has an IC50 ([1]; medium without FBS) of 314.6 ± 0.57 µM, an IC50 [2, 7] of 285.1 ± 2.44 µM and an IC50 ([3]; medium without FBS) of 416.5 ± 3.9 µM. For the same compound, the IC50 ([5]; medium without FBS) was 326.8 ± 1.4 µM and the IC50 ([6]; normal colon epithelial cells) was 109 ± 3.6 µM.
Compound `CCCCCCCCCCOC(=O)[C@@H](C)C1CCC(C[C@@H](C)O)O1` (some centres unmarked) [Compound 11] has an IC50 ([1]; medium without FBS) of 24.29 ± 0.03 µM, an IC50 [2, 7] of 38.2 ± 0.7 µM and an IC50 ([3]; medium without FBS) of 34.1 ± 1.87 µM. It also gave an IC50 [4] of 24.3 to 44.2 µM, an IC50 ([5]; medium without FBS) of 43.2 ± 2.84 µM and an IC50 ([6]; normal colon epithelial cells) of 44.2 ± 0.64 µM.
With `CCCCCCCCCCCCCCOC(=O)[C@@H](C)C1CCC(C[C@H](O)CC)O1` (some centres unmarked) [Compound 12] the IC50 ([1]; medium without FBS) was 127 ± 6.65 µM, the IC50 [2, 7] was 187 ± 4.57 µM and the IC50 ([3]; medium without FBS) was 485.6 ± 3.18 µM. The IC50 ([5]; medium without FBS) was 209 ± 3.25 µM and the IC50 ([6]; normal colon epithelial cells) was 150 ± 4.03 µM.
In the case of `CCCCCCCCCCCCCCCCCCOC(=O)[C@@H](C)C1CCC(C[C@H](O)CC)O1` (some centres unmarked) [Compound 13], the IC50 ([1]; medium without FBS) is reported as 217.6 ± 0.99 µM, the IC50 [2, 7] is reported as 313 ± 3.29 µM and the IC50 ([3]; medium without FBS) is reported as 362.4 ± 0.96 µM. It also gave an IC50 ([5]; medium without FBS) of 322 ± 4.17 µM and an IC50 ([6]; normal colon epithelial cells) of 299.3 ± 1.77 µM.
Compound `CC[C@@H](O)CC1CCC([C@H](C)C(=O)OCc2ccccc2)O1` (some centres unmarked) [Compound 14] has an IC50 ([1]; medium without FBS) of 89.9 ± 1.09 µM, an IC50 [2, 7] of 41.4 ± 2.84 µM and an IC50 ([3]; medium without FBS) of 111 ± 3.89 µM. For the same compound, the IC50 [4] was 21.1 to 89.9 µM, the “cytotoxic activity toward the tested cell lines (in words)” value [4] was “broad toxicity” and the IC50 ([5]; medium without FBS) was 73.2 ± 1.05 µM. It also gave an IC50 ([6]; normal colon epithelial cells) of 21.1 ± 3.66 µM.
In the case of `CC[C@@H](O)CC1CCC([C@H](C)C(=O)Oc2ccc(C=O)cc2OC)O1` (some centres unmarked) [Compound 15], the IC50 ([1]; medium without FBS) is reported as 175 ± 6.11 µM, the IC50 [2, 7] is reported as 175 ± 3.28 µM and the IC50 ([5]; medium without FBS) is reported as 531 ± 5.46 µM.
`CC[C@@H](O)CC1CCC([C@H](C)C(=O)Oc2ccc(-c3ccccc3)cc2)O1` (some centres unmarked) [Compound 16] showed an IC50 ([1]; medium without FBS) of 67.32 ± 0.25 µM, an IC50 [2, 7] of 105 ± 2.58 µM and an IC50 ([3]; medium without FBS) of 156 ± 3.56 µM. The IC50 ([5]; medium without FBS) was 165.1 ± 1.23 µM and the IC50 ([6]; normal colon epithelial cells) was 110 ± 1.36 µM.
`C[C@H](C(=O)N1CCCCC1)C1CCC(C[C@@H](C)O)O1` (some centres unmarked) [Compound 17] showed an IC50 ([1]; medium without FBS) of 199.1 ± 1.9 µM, an IC50 [2, 7] of 339 ± 1.23 µM and an IC50 ([3]; medium without FBS) of 390 ± 10 µM. For the same compound, the IC50 ([5]; medium without FBS) was 563 ± 7.35 µM and the IC50 ([6]; normal colon epithelial cells) was 180 ± 7.88 µM.
`CC[C@@H](O)CC1CCC([C@H](C)C(=O)Nc2ccccc2N)O1` (some centres unmarked) [Compound 18] gave an IC50 ([1]; medium without FBS) of 108 ± 5.22 µM, an IC50 [2, 7] of 402.9 ± 0.69 µM and an IC50 ([3]; medium without FBS) of 302.4 ± 1.83 µM. For the same compound, the “cytotoxic activity toward the tested cell lines (in words)” value [4] was “broad toxicity”, the IC50 ([5]; medium without FBS) was 235.7 ± 1.31 µM and the IC50 ([6]; normal colon epithelial cells) was 55.7 ± 7.65 µM.
With `CC[C@@H](O)CC1CCC([C@H](C)C(=O)Nc2nc3ccccc3s2)O1` (some centres unmarked) [Compound 19] the IC50 ([1]; medium without FBS) was 128.5 ± 0.48 µM, the IC50 ([3]; medium without FBS) was 270.3 ± 1.09 µM and the IC50 ([5]; medium without FBS) was 169 ± 4.2 µM. For the same compound, the IC50 ([6]; normal colon epithelial cells) was 80.1 ± 3.82 µM.
`CCC[C@H](CC1CCC([C@H](C)C(=O)O)O1)O[Si](C)(C)C(C)(C)C` (some centres unmarked) [Compound 20] showed an IC50 ([1]; medium without FBS) of 215 ± 0.76 µM, an IC50 [2, 7] of 323 ± 5.94 µM and an IC50 ([3]; medium without FBS) of 284.3 ± 1.24 µM. The “cytotoxic activity toward the tested cell lines (in words)” value [4] was “broad toxicity”, the IC50 ([5]; medium without FBS) was 356 ± 7.67 µM and the IC50 ([6]; normal colon epithelial cells) was 37 ± 1.39 µM.
In the case of `CC(=O)O[C@H]1C(=O)[C@@]2(C)[C@H]([C@H](OC(=O)c3ccccc3)[C@]3(O)C[C@H](OC(=O)[C@H](O)[C@@H](NC(=O)c4ccccc4)c4ccccc4)C(C)=C1C3(C)C)[C@]1(OC(C)=O)CO[C@@H]1C[C@@H]2O` [Paclitaxel, reference compound], the IC50 ([1]; positive control) is reported as 0.0458 ± 0.00179 µM, the IC50 ([2]; positive control) is reported as 0.00931 ± 0.00188 µM and the IC50 ([3]; positive control) is reported as 0.0138 ± 0.00212 µM. For the same compound, the IC50 ([5]; positive control) was 0.00569 ± 0.00132 µM and the IC50 ([6]; positive control) was 0.0182 ± 0.00234 µM.
